For the assay, the target named is T1, Glutathione reductase, mitochondrial (Homo sapiens, UniProt P00390).
T1 sequence (P00390 whole entry): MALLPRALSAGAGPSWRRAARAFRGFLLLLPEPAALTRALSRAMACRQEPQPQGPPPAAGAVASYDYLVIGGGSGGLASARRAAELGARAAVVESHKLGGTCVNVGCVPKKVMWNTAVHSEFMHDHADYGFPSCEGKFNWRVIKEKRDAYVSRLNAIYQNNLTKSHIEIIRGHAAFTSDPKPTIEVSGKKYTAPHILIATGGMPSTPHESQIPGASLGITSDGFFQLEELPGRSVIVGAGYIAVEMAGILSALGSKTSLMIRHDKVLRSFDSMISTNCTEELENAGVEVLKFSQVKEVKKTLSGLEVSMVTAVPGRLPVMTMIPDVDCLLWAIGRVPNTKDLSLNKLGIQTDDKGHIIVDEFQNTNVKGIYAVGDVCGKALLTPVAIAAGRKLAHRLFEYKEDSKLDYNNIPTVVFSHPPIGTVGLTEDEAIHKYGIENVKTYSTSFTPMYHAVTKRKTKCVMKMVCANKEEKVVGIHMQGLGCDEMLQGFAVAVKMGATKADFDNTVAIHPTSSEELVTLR
The assay is described as follows: Inhibitory concentration against human glutathione reductase.

The record followed here is BindingDB's records for doi:10.1021/jm050256l (Umr 8525 Cnrs-Universit&#233, 2005).

`O=C(Cc1ccc2ccc(NC(=O)C[N]3CC[NH][Pt]3([Cl])[Cl])cc2c1)NNC(=O)c1ccc([N+](=O)[O-])o1` [2-(2-Amino-ethylamino)-N-(7-{2-[N'-(5-nitro-furan-2-carbonyl)-hydrazino]-2-oxo-ethyl}-naphthalen-2-yl)-acetamide; compound with GENERIC INORGANIC NEUTRAL COMPONENT] registered an IC50 of 1000 nM.

Broadly, the IC50 is the concentration needed to halve the response being measured. Low readings indicate inhibition by little substance, high ones a need for much substance.
